# Where two headings read alike, the source gives them in different places.
# Experiments:
# [1] = system: A549 cells; assay: cells; type: cell-based, human; conditions: A549, 72 hours, alamarBlue
# [2] = system: CL100 cells; assay: cells; type: cell-based, human; conditions: CL100, 72 hours, alamarBlue
# [3] = system: CL141T cells; assay: cells; type: cell-based, human; conditions: 72 hours, alamarBlue
# [4] = system: CL97 cells; assay: cells; type: cell-based, human; conditions: CL97, 72 hours, alamarBlue
# [5] = system: PC9 cells; assay: cells; type: cell-based, human; conditions: PC9, 72 hours, alamarBlue
# [6] = system: H1975 cells; assay: cells; type: cell-based, human; conditions: H1975, 72 hours, alamarBlue
# [7] = system: NTUB1; assay: cytotoxicity in multiple drug-resistant and cisplatin-resistant cells; type: cell-based
# [8] = system: PC9/gef B4 cells; assay: cells; type: cell-based, human
# [9] = system: H1650 cells; assay: cells; type: cell-based, human; conditions: H1650, 72 hours, alamarBlue
# [10] = system: MES-SA; assay: cytotoxicity in multiple drug-resistant and cisplatin-resistant cells; type: cell-based
# [11] = system: H460 cells; assay: cells; type: cell-based, human; conditions: H460, 72 hours, alamarBlue
# [12] = system: MES-SA/dx5; assay: cytotoxicity in multiple drug-resistant and cisplatin-resistant cells; type: cell-based; conditions: for resistance factor: MES-SA/dx5 vs MES-SA
# [13] = system: H460 xenograft; assay: H460 xenograft in nude mice; type: in vivo; conditions: BO-1978 40 mg/kg QDx5, cisplatin 6 mg/kg every 4 days x3
# [14] = system: CL1-5 cells; assay: alamarBlue in vitro cytotoxicity assay; type: cell-based, human; conditions: CL1-5, 72 hours, alamarBlue
# [15] = system: NTUB1/P; assay: cytotoxicity in multiple drug-resistant and cisplatin-resistant cells; type: cell-based
# [16] = system: H1299 cells; assay: cells; type: cell-based, human; conditions: H1299, 72 hours, alamarBlue
compound,measurement,setting,value
N.N.[Cl][Pt][Cl] [Cisplatin],IC50,[1],31.1 ± 3.03 µM
same,IC50,[2],6.21 ± 3.64 µM
same,IC50,[3],2.8 ± 0.36 µM
same,IC50,[4],14.7 ± 0.34 µM
same,IC50,[5],16.4 ± 3.29 µM
same,IC50,[6],16.1 ± 4.03 µM
same,IC50,[7],2.97 ± 1.43 µM
same,resistance factor of PC9/gef B4 to PC9 cells,"[8]; IC50 ratio, number in brackets",2.10
same,IC50,"[8]; PC9/gef B4, 72 hours, alamarBlue",34.3 ± 1.62 µM
same,IC50,[9],36.5 ± 8.14 µM
same,IC50,[10],1.82 ± 0.66 µM
same,IC50,[11],9.94 ± 0.47 µM
same,IC50,[12]; MES-SA/dx5,2.27 ± 0.73 µM
same,resistance factor,[12],1.25 x
same,body weight loss,[13]; H460 xenograft mice,approximately 12%
same,H460 xenograft tumor size suppressed/reduced to,[13]; i.v.,52%
same,IC50,[14],2.82 ± 0.28 µM
same,IC50,[15]; NTUB1/P,62.1 ± 15.3 µM
same,resistance factor,[15]; NTUB1/P vs NTUB1,20.9 x
same,IC50,[16],16.5 ± 0.9 µM
COc1cccc2c1C(=O)c1c(O)c3c(c(O)c1C2=O)C[C@@](O)(C(=O)CO)C[C@@H]3O[C@H]1C[C@H](N)[C@H](O)[C@H](C)O1 [Doxorubicin],IC50,[10]; Homo sapiens,0.038 ± 0.003 µM
same,IC50,"[12]; Homo sapiens, MES-SA/Dx5",2.3 ± 0.98 µM
same,resistance factor,[12],60.52 x

# Reference: article PMC4840272 (Neoplasia (New York, N.Y.), 2016)
